According to patent US8470765B2, “Polypeptides and antibacterial or antiseptic use of same” (AnGes MG, Inc., priority 2009, dated 2013):
≈ marks a conversion by molar mass, not a printed value.

Key:
[1] = system: Micrococcus luteus NBRC13867; experiment: microbe, parasite or virus in culture; details: NBRC13867, read-out: MIC Micrococcus luteus
[2] = system: Streptococcus pyogenes JCM5674; experiment: microbe, parasite or virus in culture; details: JCM5674, read-out: MIC Streptococcus pyogenes
[3] = system: Salmonella enteritidis IID 604; experiment: microbe, parasite or virus in culture; details: Salmonella enterica, read-out: MIC Salmonella Enteritidis
[4] = system: Bacteroides fragilis JCM 11019; experiment: microbe, parasite or virus in culture; details: JCM11019, read-out: MIC Bacteroides fragilis
[5] = system: Actinobacillus actinomycetemcomitans JCM2434; experiment: microbe, parasite or virus in culture; details: Aggregatibacter actinomycetemcomitans, JCM2434, read-out: MIC Actinobacillus actinomycetemcomitans
[6] = system: Acinetobacter baumanni JCM6841; details: Table 4; two tests, first/second value where not identical
[7] = system: Salmonella typhimurium JCM1652; experiment: microbe, parasite or virus in culture; details: Salmonella enterica, read-out: MIC Salmonella Typhimurium
[8] = system: Fusobacterium nucleatum JCM 11025; experiment: microbe, parasite or virus in culture; details: JCM11025, read-out: MIC Fusobacterium nucleatum
[9] = system: Bacillus subtilis NBRC3134; experiment: microbe, parasite or virus in culture; details: NBRC3134, read-out: MIC Bacillus subtilis

O=C(N[C@H](CO)[C@H](O)c1ccc([N+](=O)[O-])cc1)C(Cl)Cl [chloramphenicol]
MIC [1]: 1 µg/mL (≈ 3.09 µM) | MIC [2]: 2 µg/mL (≈ 6.19 µM) | MIC [3]: 4 µg/mL (≈ 12.4 µM) | MIC [4]: 1 µg/mL (≈ 3.09 µM) | MIC [5]: 0.5 µg/mL (≈ 1.55 µM) | MIC Acinetobacter baumanni [6]: 16/32 | MIC [7]: 4 µg/mL (≈ 12.4 µM) | MIC [8]: 0.25 µg/mL (≈ 0.774 µM) | MIC [9]: 4 µg/mL (≈ 12.4 µM)
